Assay results published in patent publication US12590071B2, “Hydrazone derivative in which terminal amine group is substituted with aryl group or heteroaryl group, and use thereof” (KOREA INSTITUTE OF SCIENCE AND TECHNOLOGY, priority 2018, dated 2026).

Key:
[1] = biological target: T1, tau protein (Homo sapiens, UniProt P10636); experiment: Tau protein aggregation inhibition in tau-BiFC cell model; assay type: cell-based; conditions: tau-BiFC cells treated together with Forskolin, 48 hours
T1 construct: expressed in transfected cells
T1 sequence (P10636 2-441 isoform P10636-8 limits assumed): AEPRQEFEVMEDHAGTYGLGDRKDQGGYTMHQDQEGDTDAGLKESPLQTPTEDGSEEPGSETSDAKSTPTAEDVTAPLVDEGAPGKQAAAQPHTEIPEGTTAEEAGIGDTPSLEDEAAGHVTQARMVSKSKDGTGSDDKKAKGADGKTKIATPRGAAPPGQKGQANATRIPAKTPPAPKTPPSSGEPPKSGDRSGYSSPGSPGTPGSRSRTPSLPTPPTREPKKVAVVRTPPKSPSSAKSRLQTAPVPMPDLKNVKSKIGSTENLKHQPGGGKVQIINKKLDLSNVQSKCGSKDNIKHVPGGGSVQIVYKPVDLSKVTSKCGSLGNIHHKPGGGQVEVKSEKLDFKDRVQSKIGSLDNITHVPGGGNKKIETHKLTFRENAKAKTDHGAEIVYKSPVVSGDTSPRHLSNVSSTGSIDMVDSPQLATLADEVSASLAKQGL
Method: (§1) In order to select new tau protein aggregation-inhibiting materials, tau-BiFC cell models, in which it is easy to observe the formation of tau oligomers in living cells, were used. […] After 48 hours, intracellular nuclei were stained using Hoechst (treatment concentration 2 μg/mL), and BiFC fluorescence intensity was automatically quantified using Operetta (PerkinElmer) to count stained nuclei in each well from the total well plates. […] Further, the degree of cytotoxicity induced by the newly synthesized compound is also based on the 100% survival rate of the group treated with Forskolin alone, and the cytotoxicity value of the compound was calculated by the equation “number of stained nuclei in the group treated with the compound/number of stained nuclei in the group treated with Forskolin x 100”.
(§2) In order to evaluate dose-dependent tau protein aggregation inhibition effects of the compounds selected according to Experimental Example 1, the selected compounds were treated in tau-BiFC cells at concentrations of 0.03 µM, […], 0.3 μM, 1 μM, 3 μM, 10 μM, and 30 μM, respectively, together with Forskolin (treatment concentration 30 µM) as a tau protein aggregation inducing material. After 48 hours, tau protein aggregation reaction and cytotoxicity degree were analyzed by observing cell images. The IC50 and toxicity of the compounds were analyzed by nonlinear regression analysis of prism software (Graph Pad).

[2] = tested on: Tau-BiFC cells; experiment: Cytotoxicity (cell survival rate) in tau-BiFC cells; conditions: group treated with Forskolin alone = 100%
Method: as §1, §2

Row | Molecule | IC50 [1] [nM] | Cell survival rate (% @ 10 μM) [2] [%]
1 | N#CC(C#N)=NNc1ccc(-c2ccc3nccn3c2)cc1 [Compound 53, (4-(imidazo[1,2-a]pyridin-6-yl)phenyl)carbonohydrazonoyl dicyanide] | 1300 | 158.2
2 | N#CC(C#N)=NNc1ccc(-c2ccccn2)cc1 [Compound 10, (4-(pyridin-2-yl)phenyl)carbonohydrazonoyl dicyanide] | 520 | 110.1
3 | N#CC(C#N)=NNc1ccc(-c2ncccn2)c(F)c1 [Compound 39, (3-fluoro-4-(pyrimidin-2-yl)phenyl)carbonohydrazonoyl dicyanide] | 1510 | 89.8
4 | Cc1ncncc1C(=O)Nc1nc2ccc(NN=C(C#N)C#N)cc2s1 [Compound 96, (2-(4-methylpyrimidine-5-carboxamido)benzo[d]thiazol-6-yl)carbonohydrazonoyl dicyanide] | 400 | 106.1
5 | N#CC(C#N)=NNc1ccc2nc(NC(=O)c3cncnc3)sc2c1 [Compound 94, (2-(pyrimidine-5-carboxamido)benzo[d]thiazol-6-yl)carbonohydrazonoyl dicyanide] | 2700 | 95.3
6 | N#CC(C#N)=NNc1ccc(-c2cnc3nccn3c2)cc1 [Compound 51, (4-(imidazo[1,2-a]pyrimidin-6-yl)phenyl)carbonohydrazonoyl dicyanide] | 7420 | 84.2
7 | N#CC(C#N)=NNc1ccc(-c2cncs2)cc1 [Compound 20, (4-(thiazol-5-yl)phenyl)carbonohydrazonoyl dicyanide] | 600 | 90
8 | Cc1c[nH]c2ncc(NN=C(C#N)C#N)cc12 [Compound 82, (3-methyl-1H-pyrrolo[2,3-b]pyridin-5-yl)carbonohydrazonoyl dicyanide] | 430 | 120.2
9 | Cc1n[nH]c2cc(NN=C(C#N)C#N)ccc12 [Compound 73, (3-methyl-1H-indazol-6-yl)carbonohydrazonoyl dicyanide] | 1100 | 138.5
10 | COc1cc(-c2ncccn2)ccc1NN=C(C#N)C#N [Compound 43, (2-methoxy-4-(pyrimidin-2-yl)phenyl)carbonohydrazonoyl dicyanide] | 1840 | 112.3
11 | (2-(pyrazine-2-carboxamido)benzo[d]thiazol-5-yl)carbonohydrazonoyl dicyanide [Compound 99] | 100 | 113.1
12 | N#CC(C#N)=NNc1cnc2ccccc2c1 [Compound 64, quinolin-3-ylcarbonohydrazonoyl dicyanide] | 190 | 112.5
13 | N#CC(C#N)=NNc1ccc2[nH]ccc2c1 [Compound 71, (1H-indol-5-yl)carbonohydrazonoyl dicyanide] | 860 | 116.4
14 | Cn1cc2ccc(NN=C(C#N)C#N)cc2n1 [Compound 65, (2-methyl-2H-indazol-6-yl)carbonohydrazonoyl dicyanide] | 72 | 103.3
15 | Cn1ccc2cc(NN=C(C#N)C#N)cnc21 [Compound 76, (1-methyl-1H-pyrrolo[2,3-b]pyridin-5-yl)carbonohydrazonoyl dicyanide] | 40 | 195.8
16 | N#CC(C#N)=NNc1ccc(-c2ccc3[nH]ccc3c2)cc1 [Compound 58, (4-(1H-indol-5-yl)phenyl)carbonohydrazonoyl dicyanide] | 1200 | 113.8
17 | N#CC(C#N)=NNc1ccc(-c2cnc3ccccc3n2)cc1 [Compound 52, (4-(quinoxalin-2-yl)phenyl)carbonohydrazonoyl dicyanide] | 1400 | 139.6
18 | Cc1nc(-c2ccc(NN=C(C#N)C#N)cc2)ncc1F [Compound 3, (4-(5-fluoro-4-methylpyrimidin-2-yl)phenyl)carbonohydrazonoyl dicyanide] | 2400 | 66
19 | CCc1ccnc(-c2ccc(NN=C(C#N)C#N)cc2)n1 [Compound 6, (4-(4-ethylpyrimidin-2-yl)phenyl)carbonohydrazonoyl dicyanide] | 900 | 147.1
20 | C#Cc1cnc(-c2ccc(NN=C(C#N)C#N)cc2)nc1 [Compound 149, (4-(5-ethynylpyrimidin-2-yl)phenyl)carbohydrazonoyl dicyanide] | 100 | 113.9
21 | N#CC(C#N)=NNc1ccc(-c2ncccn2)cc1F [Compound 38, (2-fluoro-4-(pyrimidin-2-yl)phenyl)carbonohydrazonoyl dicyanide] | 940 | 88.9
22 | COc1cc(-c2ncc(C)cn2)ccc1NN=C(C#N)C#N [Compound 41, (2-methoxy-4-(5-methylpyrimidin-2-yl)phenyl)carbonohydrazonoyl dicyanide] | 7000 | 126.8
23 | Cn1ncc2cc(NN=C(C#N)C#N)ccc21 [Compound 66, (1-methyl-1H-indazol-5-yl)carbonohydrazonoyl dicyanide] | 12 | 96.8
24 | Cc1ccnc(-c2ccc(NN=C(C#N)C#N)cc2F)n1 [Compound 40, (3-fluoro-4-(4-methylpyrimidin-2-yl)phenyl)carbonohydrazonoyl dicyanide] | 2500 | 101.3
25 | COc1cccc2sc(NN=C(C#N)C#N)nc12 [Compound 59, (4-methoxybenzo[d]thiazol-2-yl)carbonohydrazonoyl dicyanide] | 500 | 120.3
26 | Cc1ncc(C(=O)Nc2nc3ccc(NN=C(C#N)C#N)cc3s2)cn1 [Compound 95, (2-(2-methylpyrimidine-5-carboxamido)benzo[d]thiazol-6-yl)carbonohydrazonoyl dicyanide] | 800 | 100.8
27 | Cn1ccc2cc(NN=C(C#N)C#N)ccc21 [Compound 68, (1-methyl-1H-indol-5-yl)carbonohydrazonoyl dicyanide] | 60 | 177.2
